Results published in publication PMC6099735, “Piplartine Analogues and Cytotoxic Evaluation against Glioblastoma” (Molecules : A Journal of Synthetic Chemistry and Natural …, 2018).
In brackets after ≈: the same amount, converted by molar mass.

Assays:
[1] = test system: U87MG cells; experiment: MTT cell viability assay, cytotoxic activity against proliferation of U87MG cells; type: cell-based, human
Description: To evaluate the cytotoxic potential of compounds 2–19 against human U87MG, glioblastoma cells were used with several concentrations (0 to 50 μg/mL). After 48 h of incubation, cell viability rates were established by MTT and LDH analysis. IC50 values of each analogue were determined due to observed cell viability results after MTT assay. All tested analogues led to inhibition of cellular proliferation rates as compared to untreated cells in a clear concentration and compound type dependent manners, as illustrated in Table 1 and Figure 2.
Human glioblastoma (GBM) cell line U87MG (American Type Culture Collection; Rockville, MD, USA) within passage number 15–20 were grown in an incubator at 37 °C in a humidified atmosphere of 5% CO2. They were grown in Eagle’s Minimal Essential Medium from Sigma-Aldrich (Saint Louis, MO, USA), supplemented with 10% fetal bovine serum (FBS) and 100 μg/mL of each of the following antibiotics: penicillin and streptomycin [66].
To examine the effects of compounds on cell viability, an MTT assay was performed. U87MG cells were seeded at 1 × 10^4 cells per well in 96-well plate and allowed to attach for 24 h. Then the cells were exposed to different concentrations of 2–19 (0.78, 1.56, 3.125, 6.25, 12.5, 25 and 50 μg/mL) for 48 h. All the compounds were dissolved in dimethyl sulfoxide (DMSO), and diluted in serum-free culture medium. After the incubation, a 3-(4,5-dimethylthiazol-2-yl)-2,5-diphenyltetrazolium bromide (MTT) solution was applied to cell cultures according to the manufacturer’s instructions (Cayman Chemical Company®, Ann Arbor, MI, USA). After 3 h of incubation, MTT-formazan crystals were dissolved in DMSO and absorbance was measured at 570 nm on a plate reader and compared with control, untreated cells. The half-maximal inhibitory concentration values (IC50) were determined by MTT assay performed in four replicates.

[2] = test system: U87MG cells; experiment: Apoptosis detection by Hoechst 33,258 staining; type: cell-based, human; conditions: 48 h at IC50 concentration, compared with control group
Description: Cell apoptosis induced by compound 10 was examined by Hoechst 33,258 staining and observed under a fluorescence microscope at 400× magnification.
The control and formulation treated cells were incubated for 48 h and were cultured in six-well cell culture plates for 48 h. after incubation, the medium was removed and the cells were fixed with 4% paraformaldehyde in phosphate buffered saline at 4 °C for 30 min. Following the washing cells three times with phosphate-buffered saline (PBS). The cells were then stained with 1 μL Hoechst 33,258 (5 μg/mL; Sigma-Aldrich, Saint Louis, MO, USA) and incubated at room temperature in the dark for 5 min. Changes in nuclear morphology were visualized under a fluorescent microscope (excitation, 350 nm; emission, 460 nm; Leica® DM IL LED, Wetzlar, Germany).

[3] = test system: U87MG cells; experiment: Total antioxidant capacity (TAC) assay; type: cell-based, human; conditions: 48 h, concentrations 0.78 and 50 μg/mL, compared with controls
Description: (§1) The total antioxidant capacity (TAC) and the total oxidant status (TOS) levels were evaluated in samples from treated and untreated cultures using colorimetric measurement methods.
(§2) The commercially available kits were purchased from (Rel Assay Diagnostics®, Gaziantep, Turkey) to estimate the level of TAS and TOS. As a summary, the cells were seeded at 10^6 cells/well in 48-well plates, treated with compound 10 as described above. After 48 h incubation, plasma samples of treated and untreated cultures were transferred to a new plate, mixed with reaction solution and incubate for 10 min at room temperature. After that, the absorbance was read spectrophotometrically and the level of TAS and TOS were calculated according to the given equation.

[4] = test system: U87MG cells; experiment: Total oxidant status (TOS) assay; type: cell-based, human; conditions: 48 h, all the concentrations
Description: as §1, §2

[5] = test system: U87MG cells; experiment: qRT-PCR gene expression, custom plate with 15 cancer pathway genes; type: cell-based, human; conditions: IC50 concentration, 48 h
Description: To find out the differences in the level of gene expression in U87MG cells exposed using compound 10, a custom plate with 15 different genes involved in cancer related pathways was used via qRT-PCR studies.
Total RNA was isolated from cultured cells using PureLink® RNA Mini Kit (Invitrogen, Carlsbad, MA, USA) following the instructions described by the manufacturer. For quantitative reverse-transcription polymerase chain reaction (qRT-PCR), RNA was reverse-transcribed to cDNA by using a High-Capacity cDNA Reverse Transcription kit (Applied Biosystems, Foster City, CA, USA) according to the manufacturer’s protocol. Real-time PCR analyses were performed using the resulting total cDNA on a TaqMan® custom plate (Applied Biosystems) designed with 15 different genes (EGFR, AKT1, AKT2, NFκB1, NFκB1A, NFκB2, PTEN, KRAS, PIK3CA, PIK3R1, TP53, RAF1, BRAF, DVL1, FOS). Results were normalized to the expression of 18SRNA. qRT-PCR and data collection were performed on 7500 Fast Real-Time PCR (Applied Biosystems). Data analyses were performed using the The Applied Biosystems 7500 Fast System SDS software (Foster City, CA, USA).

[6] = test system: peripheral human whole blood (PHWB) cells; experiment: Biosafety: MTT cytotoxicity on cultured blood cells; type: cell-based; conditions: 0.78 to 50 μg/mL
Description: (§3) To evaluate biosafety of 10, its cytotoxic and genotoxic potential were investigated on cultured peripheral human whole blood (PHWB) cells. Firstly, the cytotoxicity testing was performed by MTT and LDH assays. The human blood cells exposed to 0.78 to 50 μg/mL of 10. […] Afterwards, genotoxic potential was assessed by SCE testing and determination of 8-OH-dG.
(§4) Human peripheral blood cells were cultured in order to evaluate the biosafety of 10. To assess the cytotoxicity and genotoxicity potential of 10, MTT, LDH, Sister chromatid exchange (SCE) and 8-hydroxy-2′-deoxyguanosine assays were assessed on cultured blood cells.

[7] = test system: peripheral human whole blood (PHWB) cells; experiment: Biosafety: LDH cytotoxicity on cultured blood cells; type: cell-based; conditions: 0.78 to 50 μg/mL
Description: as §3, §4

[8] = test system: peripheral human whole blood (PHWB) cells; experiment: Sister chromatid exchange (SCE) testing; type: cell-based; conditions: 72 h, vs control group
Description: as §3
Peripheral blood samples were incubated with 10 (50 μg/mL) at 37 °C for 72 h in culture medium (PB-MAX Karyotyping Medium, Gibco®, Baecelona, Spain) with 5.0 mg/mL of phytohemagglutinin (Sigma Aldrich, Steinheim, Germany). 5-Bromodeoxyuridine (BrdU) (10 μg/mL) was added to cell cultures at initiation. At 1.5 h before harvesting, colcemid (0.5 μg/mL) were added to cells. Then cells were treated with a hypotonic solution (0.075 M KCl), followed by three times fixation step in methanol/acetic acid (3:1, v/v). Cell suspensions were dropped on slides and air-dried. Three days later, the slides were stained according to the fluorescence plus Giemsa (FPG) procedure. Slides were observed under a fluorescence microscope and scores were calculated as SCEs per cell.

[9] = test system: BF16F10-Nex2 (murine melanoma); parameters: method as in PMID 25920262; conditions: MTT test; cited from earlier work
[10] = test system: U87MG (human glioblastoma); parameters: method as in PMID 25920262; conditions: MTT test; cited from earlier work
[11] = test system: HeLa (human cervical carcinoma); parameters: method as in PMID 25920262; conditions: MTT test; cited from earlier work
[12] = test system: HCT (human colon carcinoma); parameters: method as in PMID 25920262; conditions: MTT test; cited from earlier work
[13] = test system: HL-60 (human leukemic cell); parameters: method as in PMID 25920262; conditions: MTT test; cited from earlier work
[14] = test system: A2258 (human melanoma); parameters: method as in PMID 25920262; conditions: MTT test; cited from earlier work
[15] = significant = >0.5 fold change vs untreated

SMILES: COc1cc(/C=C/C(=O)OC(c2ccccc2)c2ccccc2)cc(OC)c1OC [Compound 10, (E)-Benzhydryl 3-(3,4,5-trimethoxyphenyl)acrylate]
- cell viability / cellular proliferation rates ([1]; 0 to 50 μg/mL, 48 h, MTT and LDH analysis, compared to untreated cells): marked concentration-dependent inhibitory effect
- IC50 ([1]; Homo sapiens, U-87 MG, MTT assay, 48 h exposure, 0.78-50 μg/mL, mean ± SEM of four experiments): 2.58 ± 0.35 µg/mL (≈ 6.38 µM)
- apoptosis (nuclear morphology, Hoechst 33,258 staining) [2]: enhanced chromatin condensation and nuclear fragmentation were detected
- total antioxidant capacity (TAC) levels [3]: significant increase of TAC levels
- total oxidant status (TOS) levels [4]: did not change the TOS levels
- gene expression of BRAF, DVL1, EGFR, FOS, KRAS, NF-ĸB1A, RAF1, PIK3CA and PIK3R1 ([5]; <0.5 fold change): slight and insignificant alterations
- AKT1 gene expression [5, 15]: down-regulated
- AKT2 gene expression [5, 15]: down-regulated
- NF-ĸB1 gene expression ([5]; vs untreated): up-regulated
- NF-ĸB2 gene expression ([5]; vs untreated): up-regulated
- PTEN gene expression ([5]; vs untreated): up-regulated
- TP53 gene expression ([5]; vs untreated): up-regulated
- cytotoxicity on blood cells, cell proliferation (MTT assay) [6]: did not lead to any significant (p > 0.05) changes in cell proliferation
- cytotoxicity on blood cells, cell proliferation (LDH assay) [7]: did not lead to any significant (p > 0.05) changes in cell proliferation
- genotoxicity, frequencies of SCEs [8]: not significant differences in the frequencies of SCEs

SMILES: COc1cc(/C=C/C(=O)N2CCC=CC2=O)cc(OC)c1OC [Compound 1, Piplartine]
- IC50 [9]: > 200 µg/mL
- IC50 [10]: > 200 µg/mL
- IC50 [11]: > 200 µg/mL
- IC50 [12]: > 200 µg/mL
- IC50 [13]: > 200 µg/mL
- IC50 [14]: > 200 µg/mL
